Laboratory results taken from patent publication US12077501B2, “Compounds and compositions for intracellular delivery of agents” (ModernaTX, Inc., priority 2017, dated 2024).

Legend:
[1] = pKa of nanoparticle compositions; assay type: physicochemical; conditions: Table 1c
hEPO expression [2] = test: hEPO expression in CD-1 mice compared with MC3; assay type: in vivo; conditions: intravenous, 0.5 mpk, Table 7e
In short: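 Mice (CD-1) received nanoparticle compositions formulated with the disclosed compounds at 0.5 mpk. Expressed hEPO was then quantified, and clearance was assessed alongside.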

[3] = Lipid clearance: % dose remaining in liver of CD-1 mice; assay type: in vivo; conditions: intravenous, 0.5 mg/kg, CD-1 mouse, Table 8a
In short: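 CD-1 mice, 0.5 mpk dose of test-compound nanoparticle formulation; hEPO protein expression read out; clearance data also recorded.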

[4] = Particle size and polydispersity index of nanoparticle compositions (Zetasizer Nano ZS); assay type: physicochemical; conditions: Table 1c; nanoparticle compositions
Procedure: A Zetasizer Nano ZS (Malvem Instruments Ltd, Malvem, Worcestershire, UK) can be used to determine the particle size, the polydispersity index (PDI) and the zeta potential of the nanoparticle compositions in 1×PBS in determining particle size and 15 mM PBS in determining zeta potential.

[5] = Encapsulation efficiency of RNA (QUANT-IT RIBOGREEN RNA assay); assay type: physicochemical; conditions: Table 1c; nanoparticle compositions
In short: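 RiboGreen fluorescence (ex about 480, em about 520 nm) compares nanoparticle samples left intact versus disrupted with 2% Triton X-100 (15 min, 37° C). Samples are first brought to roughly 5 μg/mL in 10 mM Tris-HCl, 1 mM EDTA, pH 7.5; percent free RNA equals the blank-corrected intact/disrupted signal ratio.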

[6] = Lipid purity change after storage in EtOH for 96 h at 25 or 37 °C; assay type: physicochemical
In short: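 Lipid stability was assessed as purity after storage in ethanol for 96 h at 25 °C or 37 °C.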

[7] = Lipid clearance: % dose remaining, Tables 7c and 8b-8e (species not given); assay type: in vivo
Excerpt: In contrast, hEPO expression in rats induced by administration of a nanoparticle composition including a compound according to one of formulae (I), (Ia1)-(Ia6), (Ib), (II), (IIa), (III), and (IIIa) was substantially […] than that measured for MC3. […] Tables 7c and 7d show additional protein expressions and clearance data from compositions with various compounds disclosed herein as compared to with MC3. Tables 7e, 7f and 7g show hEPO expression data in CD-1 mice at a dose of 0.5 mpk.

hEPO expression [8] = test: hEPO (miR126 + miR142) mRNA expression, Tables 8b-8e; assay type: in vivo; conditions: for AUC (mIU/mL*h): lipid:Chol:PEG 1 50:47.5:2.5, Table 8e
[9] = lipid:Chol:PEG 1 50:47.5:2.5, Table 8e

## CCCCCCCCCCCCCCN(CCCCCCCC(=O)OCCCCC)CCC1CCCN(C(=O)CN(CCCCCCCCC)CCN(CCCCCCCCC)CCCCCCCCC)C1 (stereo not drawn) [Compound 120, Pentyl 8-((2-(1-(N-(2-(dinonylamino)ethyl)-N-nonylglycyl)piperidin-3-yl)ethyl)(tetradecyl)amino)octanoate]
[1]
  pKa: 6.49
hEPO expression [2]
  AUC (p/s*h) CD-1 mice 0.5 mpk: 4.17E+07 p/s*h
[3]
  % Dose Remaining 24 hr: 9.32%
[4]
  PDI: 0.21
  Size (nm): 78.7 nm
[5]
  EE (%): 99.0%
[6]
  Lipid % change purity in EtOH, 25° C., 96 h: 0.8%
  Lipid % change purity in EtOH, 37° C., 96 h: 2.9%

## CCCCCCCCCCCCCCN(CCCCCC(=O)OCCCCCCC)CCC1CCCN(C(=O)CN(CCCCCCCCC)CCN(CCCCCCCCC)CCCCCCCCC)C1 (stereo not drawn) [Compound 121, Heptyl 6-((2-(1-(N-(2-(dinonylamino)ethyl)-N-nonylglycyl)piperidin-3-yl)ethyl)(tetradecyl)amino)hexanoate]
[1]
  pKa: 6.50
hEPO expression [2]
  AUC (p/s*h) CD-1 mice 0.5 mpk: 2.84E+07 p/s*h
[3]
  % Dose Remaining 24 hr: 13.97%
[4]
  PDI: 0.22
  Size (nm): 75.7 nm
[5]
  EE (%): 98.6%
[6]
  Lipid % change purity in EtOH, 25° C., 96 h: 0.3%
  Lipid % change purity in EtOH, 37° C., 96 h: 1.5%

## CCCCCCCCCCCCCCN(CCCOC(=O)CCCCCCCCC)CCC1CCCN(C(=O)CN(CCCCCCCCC)CCN(CCCCCCCCC)CCCCCCCCC)C1 (stereo not drawn) [Compound 122, 3-((2-(1-(N-(2-(Dinonylamino)ethyl)-N-nonylglycyl)piperidin-3-yl)ethyl)(tetradecyl)amino)propyl decanoate]
[1]
  pKa: 6.44
hEPO expression [2]
  AUC (p/s*h) CD-1 mice 0.5 mpk: 5.71E+07 p/s*h
[3]
  % Dose Remaining 24 hr: 0.05%
[4]
  PDI: 0.23
  Size (nm): 77.1 nm
[5]
  EE (%): 99.1%
[6]
  Lipid % change purity in EtOH, 25° C., 96 h: 1%
  Lipid % change purity in EtOH, 37° C., 96 h: 4.1%

## CCCCCCCCCCCCCCN(CCCCCCCC(=O)OCCCCC)CCC1CCN(C(=O)CN(CCCCCCCCC)CCN(CCCCCCCCC)CCCCCCCCC)C1 (stereo not drawn) [Compound 124, Pentyl 8-((2-(1-(N-(2-(dinonylamino)ethyl)-N-nonylglycyl)pyrrolidin-3-yl)ethyl)(tetradecyl)amino)octanoate]
[1]
  pKa: 6.94
hEPO expression [2]
  AUC (p/s*h) CD-1 mice 0.5 mpk: 3.88E+07 p/s*h
[3]
  % Dose Remaining 24 hr: 5.60%
[4]
  PDI: 0.21
  Size (nm): 92.7 nm
[5]
  EE (%): 99.2%
[6]
  Lipid % change purity in EtOH, 25° C., 96 h: −4.6%
  Lipid % change purity in EtOH, 37° C., 96 h: −3.5%

## CCCCCCCCCCCCCCN(CCCOC(=O)CCCCCCCCC)CCC1CCN(C(=O)CN(CCCCCCCCC)CCN(CCCCCCCCC)CCCCCCCCC)C1 (stereo not drawn) [Compound 126, 3-((2-(1-(N-(2-(Dinonylamino)ethyl)-N-nonylglycyl)pyrrolidin-3-yl)ethyl)(tetradecyl)amino)propyl decanoate]
[1]
  pKa: 6.76
hEPO expression [2]
  AUC (p/s*h) CD-1 mice 0.5 mpk: 6.24E+07 p/s*h
[3]
  % Dose Remaining 24 hr: 0.09%
[4]
  PDI: 0.24
  Size (nm): 87.0 nm
[5]
  EE (%): 98.7%
[6]
  Lipid % change purity in EtOH, 25° C., 96 h: 0.6%
  Lipid % change purity in EtOH, 37° C., 96 h: 2.2%

## CCCCCCCCCCCCCCN(CCCCCCCCCCCC(=O)OC)CCC1CCN(C(=O)CN(CCCCCCCCC)CCN(CCCCCCCCC)CCCCCCCCC)C1 (stereo not drawn) [Compound 127, Methyl 12-((2-(1-(N-(2-(dinonylamino)ethyl)-N-nonylglycyl)pyrrolidin-3-yl)ethyl)(tetradecyl)amino)dodecanoate]
[1]
  pKa: 6.81
hEPO expression [2]
  AUC (p/s*h) CD-1 mice 0.5 mpk: 3.45E+07 p/s*h
[3]
  % Dose Remaining 24 hr: 0.86%
[4]
  PDI: 0.20
  Size (nm): 79.8 nm
[5]
  EE (%): 99.5%
[6]
  Lipid % change purity in EtOH, 25° C., 96 h: 2.7%
  Lipid % change purity in EtOH, 37° C., 96 h: 2.9%

## CCCCCCCCCN(CCCCCCCCC)CCOC(=O)C1CCC(C(=O)OCCN(CCCCCCCCC)CCN(CCCCCCCCC)CCCCCCCCC)CC1 (stereo not drawn) [Compound 128, 1-(2-(Dinonylamino)ethyl) 4-(2-((2-(dinonylamino)ethyl)(nonyl)amino)ethyl) cyclohexane-1,4-dicarboxylate]
[1]
  pKa: 4.93
hEPO expression [2]
  AUC (p/s*h) CD-1 mice 0.5 mpk: 3.04E+05 p/s*h
[3]
  % Dose Remaining 24 hr: 52.19%
[4]
  PDI: 0.20
  Size (nm): 68.0 nm
[5]
  EE (%): 97.1%
[6]
  Lipid % change purity in EtOH, 25° C., 96 h: 6.9%
  Lipid % change purity in EtOH, 37° C., 96 h: 12.2%

## CCCCCCCCCCN(CCCCCCCCCC)CCCC(=O)N1CCN(C(=O)CCCN(CCCCCCCCCC)CCCCCCCCCC)CC1 [Compound 146, 1,1′-(Piperazine-1,4-diyl)bis(4-(didecylamino)butan-1-one)]
[7]; Table 8b
  % Dose Remaining (liver, 24 h): 81.04%
hEPO expression [8]; Table 8b
  AUC: 1.27e+07 pg·h/mL

## CCCCCCCCCN(CCCCCCCCC)CCN(CCCCCCCCC)CC(=O)N(C)CCN(C)C(=O)CN(CCCCCCCCC)CCCCCCCCC [Compound 151, 2-(Dinonylamino)-N-(2-(2-((2-(dinonylamino)ethyl)(nonyl)amino)-N-methylacetamido)ethyl)-N-methylacetamide]
[1]
  pKa: 7.46
hEPO expression [2]
  AUC (p/s*h) CD-1 mice 0.5 mpk: 1.54E+08 p/s*h
[3]
  % Dose Remaining 24 hr: 75.96%
[4]
  PDI: 0.18
  Size (nm): 77.4 nm
[5]
  EE (%): 98.8%
[6]
  Lipid % change purity in EtOH, 25° C., 96 h: −0.7%
  Lipid % change purity in EtOH, 37° C., 96 h: 2.1%

## CCCCCCCCCN(CCCCCCCCC)CCN(CCCCCCCCC)CC(=O)N(C)CCN(C)C(=O)CN(CCCCCCCCC)CCCC(=O)OCCCCC [Compound 152, Pentyl 8,11-dimethyl-5,14,17-trinonyl-7,12-dioxo-5,8,11,14,17-pentaazahexacosanoate]
[1]
  pKa: 7.48
hEPO expression [2]
  AUC (p/s*h) CD-1 mice 0.5 mpk: 1.09E+08 p/s*h
[3]
  % Dose Remaining 24 hr: 34.01%
[4]
  PDI: 0.16
  Size (nm): 79.1 nm
[5]
  EE (%): 98.5%
[6]
  Lipid % change purity in EtOH, 25° C., 96 h: 0%
  Lipid % change purity in EtOH, 37° C., 96 h: 2%

## CCCCCCCCCOC(=O)CCCCCCCN(CCCCCCCC(=O)OCCCCCCCCC)CCOCCOCCN(CCCCCCCCC)CCCCCCCCC [Compound 173, Nonyl 18-nonyl-9-(8-(nonyloxy)-8-oxooctyl)-12,15-dioxa-9,18-diazaheptacosanoate]
[7]; [9]
  % Dose Remaining (liver, 24 h): 8.55%
hEPO expression [8]
  AUC (mIU/mL*h): 6.70E+06 mIU/mL*h

## CCCCCCCCCOC(=O)CCCCCCCN(CCCCCCCC(=O)OC(CCCCCCCC)CCCCCCCC)CCOCCOCCN(CCCCCCCCC)CCCCCCCCC [Compound 174, Heptadecan-9-yl 18-nonyl-9-(8-(nonyloxy)-8-oxooctyl)-12,15-dioxa-9,18-diazaheptacosanoate]
[7]; [9]
  % Dose Remaining (liver, 24 h): 30.05%
hEPO expression [8]
  AUC (mIU/mL*h): 5.03E+07 mIU/mL*h

## CCCCCCCCCOC(=O)CCCCCCCN(CCCCCCCC(=O)OCCCCCCCCC)CCCCCN(CCCCCCCCC)CCCCCCCCC [Compound 177, Dinonyl 8,8′-((5-(dinonylamino)pentyl)azanediyl)dioctanoate]
[7]; [9]
  % Dose Remaining (liver, 24 h): 35.91%
hEPO expression [8]
  AUC (mIU/mL*h): 6.84E+07 mIU/mL*h

## CCCCCCCCCOC(=O)CCCCCCCN(CCCCCCCC(=O)OC(CCCCCCCC)CCCCCCCC)CCCCCN(CCCCCCCCC)CCCCCCCCC [Compound 178, Heptadecan-9-yl 8-((5-(dinonylamino)pentyl)(8-(nonyloxy)-8-oxooctyl)amino)octanoate]
[7]; [9]
  % Dose Remaining (liver, 24 h): 44.93%
hEPO expression [8]
  AUC (mIU/mL*h): 8.44E+07 mIU/mL*h

## CCCCCCCCCOC(=O)CCCCCCCN(CCCCCCCC(=O)OCCCCCCCCC)CCOCCN(CCCCCCCCC)CCCCCCCCC [Compound 179, Dinonyl 8,8′-((2-(2-(dinonylamino)ethoxy)ethyl)azanediyl)dioctanoate]
[7]; [9]
  % Dose Remaining (liver, 24 h): 26.22%
hEPO expression [8]
  AUC (mIU/mL*h): 7.79E+06 mIU/mL*h
